Laboratory results from publication PMC9848300, “Discovery of novel enasidenib analogues targeting inhibition of mutant isocitrate dehydrogenase 2 as antileukaemic agents” (Journal of Enzyme Inhibition and Medicinal Chemistry, 2023).

Assays:
Type in all cases: cell-based
ACHN = experiment: NCI 60 antitumor screening (single dose / five doses); conditions: Homo sapiens; for inhibition at 10 µM: ACHN (renal cancer), single dose 10 μM, read-out: Growth inhibition percentage (GI %); for GI50: ACHN, five doses (0.01–100 μM), read-out: GI50
SF-539 = experiment: as above; conditions: Homo sapiens; for inhibition at 10 µM: SF-539 (CNS cancer), single dose 10 μM, read-out: Growth inhibition percentage (GI %); for GI50: SF-539, five doses (0.01–100 μM), read-out: GI50
K-562 = experiment: as above; conditions: Homo sapiens, K562; for inhibition at 10 µM: K-562 (leukaemia), single dose 10 μM, read-out: Growth inhibition percentage (GI %); for GI50: K-562, five doses (0.01–100 μM), read-out: GI50
HOP-62 = experiment: NCI 60 antitumor screening (single dose); conditions: Homo sapiens; HOP-62 (non-small cell lung cancer), single dose 10 μM; read-out: Growth inhibition percentage (GI %)
Protocol: (§1) Initially, the anticancer effects of target compounds have been assessed at a single (10 μM) dose. The obtained data have been reported as mean-graph of the percent growth (G%) of the treated cancer cells. Percentage growth inhibition (GI%) is calculated (100 − G%) and pronounced in Table 1. […] Target compounds in series (III) with manipulated linkers disclosed lower potency. Superiorly, eight s-triazine derivatives from the three series (6a, 6c, 6d, 7a, 7g, 7i, 7l, and 8b) have shown potent broad-spectrum anticancer activity against most the examined cell lines, whereas most of the remaining triazine derivatives, 20 derivatives, have exerted selective anti-proliferative actions towards certain cancer cell lines (Supplementary).
(§2) The antitumor screening was performed for 60 human cancer cell lines under the protocol of NCI (www.dtp.nci.nih.gov), the Drug Evaluation Branch, Bethesda, MD. All submitted compounds were nominated based on the degree of structural diversity and computer modelling techniques for evaluation of their anticancer activity. The screening process for antineoplastic activity passes through two successive levels, starting with the assessment of target compounds at a single dose of 10 μM against 60 cancer cell lines on nine types of human tumours. These experiments were done on a triplicate following. The output from the single‐dose screening was covered as a mean graph, and then, analysed by the COMPARE program. Finally, the compounds which disclosed subpanel cancer cell growth (G %) equal to or less than 10% in at least eight cancer cell lines get to pass the assessment against the 60 cell lines at five doses (0.01–100 μM). By using GraphPad Prism version 9.0 (Graphpad Software Inc., La Jolla, CA), GI50, TGI, as well as LC50 dose‐response parameters were computed and presented for each compound (Supplementary information)[55–57].

HS 578T = experiment: NCI 60 antitumor screening (single dose); conditions: Homo sapiens; HS 578T (breast cancer), single dose 10 μM; read-out: Growth inhibition percentage (GI %)
Protocol: as §1, §2

TK-10 = experiment: NCI 60 antitumor screening (single dose); conditions: Homo sapiens; TK-10 (renal cancer), single dose 10 μM; read-out: Growth inhibition percentage (GI %)
Protocol: as §1, §2

CAKI-1 = experiment: NCI 60 antitumor screening (single dose); conditions: Homo sapiens; CAKI-1 (renal cancer), single dose 10 μM; read-out: Growth inhibition percentage (GI %)
Protocol: as §1, §2

NCI-H522 = experiment: NCI 60 antitumor screening (single dose); conditions: Homo sapiens; NCI-H522 (non-small cell lung cancer), single dose 10 μM; read-out: Growth inhibition percentage (GI %)
Protocol: as §1, §2

OVCAR-3 = experiment: NCI 60 antitumor screening (single dose); conditions: Homo sapiens; OVCAR-3 (ovarian cancer), single dose 10 μM; read-out: Growth inhibition percentage (GI %)
Protocol: as §1, §2

HCC-2998 = experiment: NCI 60 antitumor screening (single dose); conditions: Homo sapiens; HCC-2998 (colon cancer), single dose 10 μM; read-out: Growth inhibition percentage (GI %)
Protocol: as §1, §2

U251 = experiment: NCI 60 antitumor screening (single dose); conditions: Homo sapiens, U-251; U251 (CNS cancer), single dose 10 μM; read-out: Growth inhibition percentage (GI %)
Protocol: as §1, §2

SF-268 = experiment: NCI 60 antitumor screening (single dose); conditions: Homo sapiens; SF-268 (CNS cancer), single dose 10 μM; read-out: Growth inhibition percentage (GI %)
Protocol: as §1, §2

NCI-H460 = experiment: NCI 60 antitumor screening (single dose); conditions: Homo sapiens; NCI-H460 (non-small cell lung cancer), single dose 10 μM; read-out: Growth inhibition percentage (GI %)
Protocol: as §1, §2

OVCAR-5 = experiment: NCI 60 antitumor screening (single dose); conditions: Homo sapiens; OVCAR-5 (ovarian cancer), single dose 10 μM; read-out: Growth inhibition percentage (GI %)
Protocol: as §1, §2

SNB-19 = experiment: NCI 60 antitumor screening (single dose); conditions: Homo sapiens; SNB-19 (CNS cancer), single dose 10 μM; read-out: Growth inhibition percentage (GI %)
Protocol: as §1, §2

M14 = experiment: NCI 60 antitumor screening (single dose); conditions: Homo sapiens; M14 (melanoma), single dose 10 μM; read-out: Growth inhibition percentage (GI %)
Protocol: as §1, §2

MCF7 = experiment: NCI 60 antitumor screening (single dose); conditions: Homo sapiens; MCF7 (breast cancer), single dose 10 μM; read-out: Growth inhibition percentage (GI %)
Protocol: as §1, §2

NCI-H226 = experiment: NCI 60 antitumor screening (single dose); conditions: Homo sapiens; NCI-H226 (non-small cell lung cancer), single dose 10 μM; read-out: Growth inhibition percentage (GI %)
Protocol: as §1, §2

PC-3 = experiment: NCI 60 antitumor screening (single dose); conditions: Homo sapiens; PC-3 (prostate cancer), single dose 10 μM; read-out: Growth inhibition percentage (GI %)
Protocol: as §1, §2

A549/ATCC = experiment: NCI 60 antitumor screening (single dose); conditions: Homo sapiens; A549/ATCC (non-small cell lung cancer), single dose 10 μM; read-out: Growth inhibition percentage (GI %)
Protocol: as §1, §2

OVCAR-8 = experiment: NCI 60 antitumor screening (single dose); conditions: Homo sapiens; OVCAR-8 (ovarian cancer), single dose 10 μM; read-out: Growth inhibition percentage (GI %)
Protocol: as §1, §2

KM 12 = experiment: NCI 60 antitumor screening (single dose); conditions: Homo sapiens, KM12; KM 12 (colon cancer), single dose 10 μM; read-out: Growth inhibition percentage (GI %)
Protocol: as §1, §2

NCI-H322M = experiment: NCI 60 antitumor screening (single dose); conditions: Homo sapiens; NCI-H322M (non-small cell lung cancer), single dose 10 μM; read-out: Growth inhibition percentage (GI %)
Protocol: as §1, §2

CCRF-CEM = experiment: NCI 60 antitumor screening (single dose / five doses); conditions: Homo sapiens; for inhibition at 10 µM: CCRF-CEM (leukaemia), single dose 10 μM, read-out: Growth inhibition percentage (GI %); for GI50: CCRF-CEM, five doses (0.01–100 μM), read-out: GI50
RPMI-8226 = experiment: as above; conditions: Homo sapiens; for inhibition at 10 µM: RPMI-8226 (leukaemia), single dose 10 μM, read-out: Growth inhibition percentage (GI %); for GI50: RPMI-8226, five doses (0.01–100 μM), read-out: GI50
MALME-3M = experiment: as above; conditions: Homo sapiens; for inhibition at 10 µM: MALME-3M (melanoma), single dose 10 μM, read-out: Growth inhibition percentage (GI %); for GI50: MALME-3M, five doses (0.01–100 μM), read-out: GI50
UACC-257 = experiment: as above; conditions: Homo sapiens; for inhibition at 10 µM: UACC-257 (melanoma), single dose 10 μM, read-out: Growth inhibition percentage (GI %)

Compound | inhibition at 10 µM (ACHN) | GI50 (ACHN) | inhibition at 10 µM (SF-539) | GI50 (SF-539) | inhibition at 10 µM (K-562) | GI50 (K-562) | inhibition at 10 µM (HOP-62) | inhibition at 10 µM (HS 578T) | inhibition at 10 µM (TK-10) | inhibition at 10 µM (CAKI-1) | inhibition at 10 µM (NCI-H522) | inhibition at 10 µM (OVCAR-3) | inhibition at 10 µM (HCC-2998) | inhibition at 10 µM (U251) | inhibition at 10 µM (SF-268) | inhibition at 10 µM (NCI-H460) | inhibition at 10 µM (OVCAR-5) | inhibition at 10 µM (SNB-19) | inhibition at 10 µM (M14) | inhibition at 10 µM (MCF7) | also measured
Oc1ccccc1/C=N/Nc1nc(N/N=C/c2ccccc2O)nc(N2CCOCC2)n1 [compound 6a, 2-[(1e)-(2-{4-[(E)-2-[(2-Hydroxyphenyl)methylidene]hydrazin-1-yl]-6-(morpholin-4-yl)-1,3,5-triazin-2-yl}hydrazin-1-ylidene)methyl]phenol] | 71.9% | 1580 nM | 48.2% | 7290 nM | 74.6% | 680 nM | 74.3% | 53% | 52% | 95.4% | 39.1% | 66.4% | 41.1% | 78% | 27.7% | 67.5% | 63% | 58.3% | 62.4% | 60% | inhibition at 10 µM (NCI-H226): 76.7%; inhibition at 10 µM (PC-3): 75.9%; inhibition at 10 µM (A549/ATCC): 87%; inhibition at 10 µM (OVCAR-8): 87.3%; inhibition at 10 µM (KM 12): 47.3%; inhibition at 10 µM (NCI-H322M): 55.5%; inhibition at 10 µM (CCRF-CEM): 57.6%; GI50 (CCRF-CEM): 530 nM; inhibition at 10 µM (RPMI-8226): 46.4%; GI50 (RPMI-8226): 2780 nM; inhibition at 10 µM (MALME-3M): 47.4%; GI50 (MALME-3M): 8690 nM; inhibition at 10 µM (UACC-257): 46.7%; GI50 (UACC-257; UACC-257, five doses (0.01–100 μM), read-out: GI50): 6530 nM
Brc1cccc(/C=N/Nc2nc(N/N=C/c3cccc(Br)c3)nc(N3CCOCC3)n2)c1 [compound 6c, 2,4-Bis[(E)-2-[(3-bromophenyl)methylidene]hydrazin-1-yl]-6-(morpholin-4-yl)-1,3,5-triazine] | 73.7% | 2210 nM | 43.6% | 3830 nM | 85.5% | 330 nM | 47.7% | 33.8% | 33.2% | 84.6% | 66.5% | 57.5% | 68.5% | 57.3% | 31.6% | 58.8% | 27.6% | 22.1% | 68.3% | 77.9% | inhibition at 10 µM (NCI-H226): 56.7%; inhibition at 10 µM (PC-3): 63.5%; inhibition at 10 µM (A549/ATCC): 57.4%; inhibition at 10 µM (OVCAR-8): 62.6%; inhibition at 10 µM (KM 12): 69.7%; inhibition at 10 µM (NCI-H322M): 47.2%; inhibition at 10 µM (CCRF-CEM): 79%; GI50 (CCRF-CEM): 570 nM; inhibition at 10 µM (RPMI-8226): 65.8%; GI50 (RPMI-8226): 1680 nM; inhibition at 10 µM (MALME-3M): 154%; GI50 (MALME-3M): 1880 nM; inhibition at 10 µM (UACC-257): 64.1%
